Measured values published in PMC11468294, “Peptide Amphiphiles as Biodegradable Adjuvants for Efficient Retroviral Gene Delivery” (Advanced Healthcare Materials, 2023).
Where a SMILES comes first, the peptide text is derived from it. The star is where a group is joined. Palmitoyl = CCCCCCCCCCCCCCCC(=O)*

How the values were obtained:
[1] = test system: HIV-1 infection of TZM-bl cells; assay: HIV-1 infection assay (β-galactosidase luminescence reporter); format: cell-based; details: infectivity enhancing if n-fold at 1.3 µM larger than 2
Method in brief: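 TZM-bl cells (10000 per well) were seeded one day before infection. Peptide nanofibril solution was mixed 1:1 (v/v) with HIV-1 (1:500 dilution) for 10 min before inoculation. Infection was read as β-galactosidase luminescence, in technical triplicates across three independent experiments.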

CD4+ T cells = format: cell-based, Human; details: 0.26, 1.3, 6.5 µM, 3 days; LIVE/DEAD Fixable Aqua stain
Procedure: (§1) γ‐Retroviral transduction Assay CD4+ T cells: Human CD4+ T cells were isolated from a Buffy coat using RosetteSep Human CD4+ Enrichment Cocktail ([…] Technologies) according to manufacturer's protocol. Isolated T cells were activated using Dynabeads Human T‐Activator CD3/CD28 (GibcoTM) according to manufacturer's protocol in presence of 10 ng mL^−1 IL‐2 (Miltenyi Biotec) for three days. After 3 days the magnetic Dynabeads were removed using a magnet and T cells were cultured in presence of 9 ng mL^−1 IL‐7 (Miltenyi Biotec) and 10 ng mL^−1 IL‐15 (Miltenyi Biotec). After 1 day 5 × 10^5 T cells were transduced with GALV‐γ‐RV in absence and presence of PA1, PA2, EF‐C (0.26, 1.3 and 6.5 µM) and Vectofusin−1 (10 µg mL^−1; Miltenyi Biotec), or RetroNectin (20 µg mL^−1; Takara Bio). […] After 3 days GFP+ T cells were analyzed by flow cytometry. Viability was determined using LIVE/DEAD Fixable Aqua Dead Cell Stain Kit (ThermoFisher Scientific) according to manufacturer's protocol. […]
Figure S7 Viability of CD4+ T cells. […] Dead cells were initially eliminated by gating on viability dye-negative cells (SSC-A vs. Fixable Aqua Fluorescence) and afterwards for singlets (FSC-H vs. FSC-A). GFP+ cells were measured using the FITC channel. […]

[2] = test system: GALV-RV transduction of CD4+ T cells; assay: γ-Retroviral transduction assay of CD4+ T cells; format: cell-based, Human; details: GALV-RV, 0.26, 1.3, 6.5 µM; GFP+ cells after 3 days; performed once
Procedure: as §1, with “Bio). The concentration of the transduction enhancers corresponds to the concentration on cells and in the case for RetroNectin it corresponds to the concentration that was used to precoat the 24‐well plate. The 24‐well plate was coated with RetroNectin and incubated overnight at 4°C. Wells were blocked with PBS containing 2% BSA for 30 min and washed twice with PBS.” for “Bio).”

## CCCCCCCCCCCCCCCC(=O)N[C@@H](Cc1ccccc1)C(=O)N[C@@H](CCC(N)=O)C(=O)N[C@@H](Cc1ccccc1)C(=O)N[C@@H](CCCCN)C(=O)N[C@@H](Cc1ccccc1)C(=O)N[C@@H](CCCCN)C(=O)N[C@@H](CS)C(N)=O [PA2] (Palmitoyl-FQFKFKC-NH2)
[1]
  infectivity enhancement of HIV-1 (in words): strong infectivity enhancement of HIV‐1 in the range of EF‐C
CD4+ T cells
  viability of CD4+ T cells: did not reduce the viability
[2]
  transduction efficacy in primary CD4+ T cells (in words): in the range of commercially available gold‐standard enhancers RetroNectin and Vectofusin‐1

## C16-VVVAAAKKK-NH2 [PA1]
[1]
  infectivity enhancement of HIV-1 (in words): strong infectivity enhancement of HIV‐1 in the range of EF‐C
CD4+ T cells
  viability of CD4+ T cells: did not reduce the viability
[2]
  transduction efficacy in primary CD4+ T cells (in words): in the range of commercially available gold‐standard enhancers RetroNectin and Vectofusin‐1
